Several values for one entry are separate records, joined by “and”; a condition that tells them apart may be missing. Equal entries are not always repeated.
biological target: T1, leukotriene receptor (guinea pig lung membranes) (Cavia porcellus, UniProt Q2NNR5); assay: Binding of ^3 H-Leukotriene D4 to Guinea Pig Lung Membranes (RBL); conditions: 0.2 nM ^3 H-LTD4, 60 min, 25° C.; read-out: Concentration (M) for 50.0 % Inhibition, IC (RBL)
T1 construct: 20 mg original tissue wet weight of guinea pig lung; tissue Kuiper Rabbit Farm, Gary, IN (animals); host or cells: guinea pig lung, crude membranes
T1 sequence (Q2NNR5 1-340): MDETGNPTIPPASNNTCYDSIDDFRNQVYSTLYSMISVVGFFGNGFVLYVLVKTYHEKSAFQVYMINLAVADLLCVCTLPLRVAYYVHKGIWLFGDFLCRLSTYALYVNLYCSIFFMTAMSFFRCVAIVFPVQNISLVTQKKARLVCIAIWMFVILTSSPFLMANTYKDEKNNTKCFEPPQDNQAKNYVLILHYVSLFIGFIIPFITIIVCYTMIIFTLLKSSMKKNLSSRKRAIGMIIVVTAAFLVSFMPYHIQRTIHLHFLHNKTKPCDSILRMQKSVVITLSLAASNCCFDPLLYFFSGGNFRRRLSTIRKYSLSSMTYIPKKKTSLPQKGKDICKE
Description: Additionally, the activity, of the compounds having the Formula I of the present invention is determined by the well known leukotriene receptor binding assay that is described by R. F. Bruns, W. J. Thomsen and T. A. Pugsley in Life Sciences, 33, 645 (1983) or the Herxheimer in vivo antiallergy test described in H. Herxheimer, J. Physiol. (London), Vol. 177, p. 251 (1952).
Binding of ^3 H-Leukotriene D4 to Guinea Pig Lung Membranes (RBL)
[14,15-^3 H]leukotriene D4 (^3 H-LTD4) (25 Ci/mmol and 40 Ci/mmol) is purchased from New England Nuclear. Unlabeled LTC4 is a gift of Ono Pharmaceuticals (Japan). LTC4, LTD4, and LTE4 are purchased as methyl esters from Paesel GmbH (Frankfurt, W. Germany). Concentrations of the Paesel leukotrienes are calculated from their absorbance at 280 nm. Leukotriene esters are saponified overnight under N2 in 3.3% potassium carbonate at room temperature. Tritiated leukotrienes are stored as received from New England Nuclear at -20° C. Ono LTC4 (5 μg/ml) is stored at -60° C. in phosphate buffer pH 6.8. Saponified Paesel leukotrienes are stored at -60° C. in 3.3% potassium carbonate (pH 9.0-9.5). Aliquots of leukotrienes are taken from stock solutions immediately after thawing, after which the stock solutions are immediately refrozen. 2-Amino-2-(hydroxymethyl)-1,3-propanediol (Tris) is Sigma pH 7.7 pre-set crystals, and dimethylsulfoxide is Aldrich Gold Label.
Preparation of crude lung membranes
Two pairs of lungs (1.3 g) from freshly sacrificed 300 g male guinea pigs (older animals gave substantially lower binding) from Kuiper Rabbit Farm, Gary, IN are disrupted with a Polytron PT 10 (setting 4) for 30 seconds in 20 ml ice-cold 50 mM Tris adjusted with HCl to pH 7.7 at 25° C. (Tris buffer), filtered through a single layer of gauze to remove connective tissue, and centrifuged at 50,000 xg for ten min. The pellet is resuspended by homogenization with a Polytron in 20 ml Tris buffer, centrifuged at 50,000 xg for ten min., resuspended, incubated at 37° C. for 30 minutes, and centrifuged again. The final pellet is resuspended in Tris buffer and either used fresh or stored at -70° C.
All incubations are in triplicate for 60 minutes at 25° C. in 12×75 mm polystyrene tubes containing 1 ml Tris buffer with 20 mg original tissue wet weight of guinea pig lung nmembranes, 0.2 nM ^3 H-LTD4 (6,000-11,000 cpm), 10 mM MgCl2, and 1% dimethylsulfoxide Leukotrienes are diluted in Tris buffer. All other test compounds dissolved at 10 mM in dimethylsulfoxide on the same day as the experiment, and diluted in dimethylsulfoxide to 100× the final incubation concentration. Control incubations receive an equal volume (10 μl) of dimethylsulfoxide; the resulting concentration of dimethylsulfoxide had no effect on binding. ^3 H-LTD4 is diluted to 2 nM in Tris buffer. The membrane suspension (20 mg/0.89 ml) contains sufficient MgCl2 to give 10 mM final concentration in the incubation. […] All additions are performed at 0° C. Immediately after the last addition, the incubation is initiated by agitating the rack of tubes on a vortex mixer and warming to 25° C. in a water bath. Tubes are vortexed at least once more during the incubation to ensure that the membranes remained suspended. Incubations are terminated after 60 minutes by filtering under reduced pressure through 25 mm Whatman GF/B filters followed by rapid washing three times with 4 ml of ice-cold Tris buffer. Filters are added to scintillation vials with 8 ml Formula 947 (New England Nuclear), left overnight, shaken, and the radioactivity counted in a scintillation counter (efficiency 40%). Nonspecific binding, defined as binding of ^3 H-LTD4 in the presence of 100 nM LTC4, is 300-500 cpm for all lots of ^3 H-LTD4. Binding to the filters in the absence of tissue is about 100 cpm, and is not affected by unlabeled LTC4. Specific binding, defined as total binding minus nonspecific binding, varied considerably from lot to lot of ^3 H-LTD4. […]

| SMILES | IC50 |
| --- | --- |
| O=C(Nc1ccccc1CCc1ccc(Cl)c(Cl)c1)C1=C(O)c2ccccc2S(=O)(=O)C1 [Example 8, N-[2-[2-(3,4-Dichlorophenyl)ethyl]phenyl]-4-hydroxy-2H-1-benzothiopyran-3-carboxamide, 1,1-dioxide] | 4.21e-06 M |
| O=C(Nc1ccc(CCc2ccccc2)cc1)C1CS(=O)(=O)c2ccccc2C1=O (centres unmarked) [Example 16, 3,4-Dihydro-4-oxo-N-[(4-(2-phenyl)ethyl]-phenyl]-2H-1-benzothiopyran-3-carboxamide, 1,1-dioxide] | 1.28e-05 M |
| COc1ccc(CCc2ccc(NC(=O)C3CS(=O)(=O)c4ccccc4C3=O)cc2)cc1 (centres unmarked) [Example 41] | 1.26e-05 M |
| O=C(Nc1ccc(CCc2ccc(-c3ccccc3)cc2)cc1)C1CS(=O)(=O)c2ccccc2C1=O (centres unmarked) [Example 46, N-[4-[2-([1,1'-biphenyl]-4-yl)ethyl]phenyl]-3,4-dihydro-4-oxo-2H-1-benzothiopyran-3-carboxamide, 1,1-dioxide] | 2.15e-05 M and 1.87e-05 M |
| CCCCOc1ccc(CCc2ccc(NC(=O)C3CS(=O)(=O)c4ccccc4C3=O)cc2)cc1 (centres unmarked) [Example 48] | 6.48e-06 M and 1.19e-05 M and 2e-05 M and 1.29e-05 M |
| O=C(Nc1ccc(CCc2ccc(Cl)cc2)cc1)C1CS(=O)(=O)c2ccccc2C1=O (centres unmarked) [Example 54, N-[4-[2-(4-Chlorophenyl)ethyl]phenyl]-3,4-dihydro-4-oxo-2H-1-benzothiopyran-3-carboxamide, 1,1-dioxide] | 1.09e-05 M |
| CCCCCCCCCCc1ccc(NC(=O)C2CS(=O)(=O)c3ccccc3C2=O)cc1 (centres unmarked) [Example 60, N-(4-Decylphenyl)-3,4-dihydro-4-oxo-2H-1-benzoothiopyran-3-carboxamide, 1,1-dioxide] | 1.21e-05 M |
| O=C(Nc1ccc(CCc2c(F)c(F)c(F)c(F)c2F)cc1)C1=C(O)c2ccccc2S(=O)(=O)C1 [Example 64, N-[4-[2-(2,3,4,5,6-Pentafluorophenyl)ethyl]phenyl]-4-hydroxy-2H-1-benzothiopyran-3-carboxamide, 1,1-dioxide] | 6.11e-06 M and 9.49e-06 M and 2.82e-06 M |
| O=C(Nc1ccc(C=Cc2ccc([N+](=O)[O-])cc2)cc1)C1CS(=O)(=O)c2ccccc2C1=O (centres unmarked) [Example 67, 2H-1-Benzothiopyran-3-carboxamide, 3,4-dihydro-N-[4-[2-(4-nitrophenyl)ethenyl]phenyl]-4-oxo-, 1,1-dixide] | 6.56e-06 M and 1.04e-05 M |
| O=C(Nc1ccc(CCc2cccc3ccccc23)cc1)C1=C(O)c2ccccc2S(=O)(=O)C1 [Example 73, 2H-1-Benzothiopyran-3-carboxamide, 4-hydroxy-N-[4-[2-(1-naphthalenyl)ethyl]phenyl], 1,1-dioxide] | 3.84e-06 M |
| O=C(Nc1ccc(C=Cc2ccc(Cl)c(Cl)c2)cc1)C1=C(O)c2ccccc2S(=O)(=O)C1 [Example 74, 2H-1-Benzothiopyran-3-carboxamide, N-[4-[2-(3,4-dichlorophenyl)ethenyl]phenyl]-4-hydroxy-, 1,1-dioxide] | 5.27e-06 M |
| O=C(Nc1cccc(CCc2ccc(Cl)c(Cl)c2)c1)C1=C(O)c2ccccc2S(=O)(=O)C1 [Example 76, 2H-1-Benzothiopyran-3-carboxamide, N-[3-[2-(3,4-dichlorophenyl)ethyl]phenyl]-4-hydroxy-, 1,1-dioxide] | 3e-06 M |
| O=C(Nc1ccc(Cc2ccc(Cl)c(Cl)c2)cc1)C1=C(O)c2ccccc2S(=O)(=O)C1 [Example 78, 2H-1-Benzothiopyran-3-carboxamide, N-[4-[(3,4-dichlorophenyl)methyl]phenyl]-4-hydroxy-, 1,1-dioxide] | 4.82e-06 M |
| O=C(Nc1ccccc1CCCc1ccc(Cl)c(Cl)c1)C1=C(O)c2ccccc2S(=O)(=O)C1 [Example 80, 2H-1-Benzothiopyran-3-carboxamide, N-[2-[3-(3,4-dichlorophenyl)propyl]phenyl]-4-hydroxy-, 1,1-dioxide] | 1.27e-05 M |
| O=C(Nc1ccccc1Cc1ccc(Cl)c(Cl)c1)C1=C(O)c2ccccc2S(=O)(=O)C1 [Example 81, 2H-1-Benzothiopyran-3-carboxamide, N-[2-[(3,4-dichlorophenyl)methyl]phenyl]-4-hydroxy, 1,1-dioxide] | 1.01e-05 M |

Second part, the compound after the results:

| IC50 | SMILES |
| --- | --- |
| 7.19e-05 M | COc1ccc(CCc2ccc(NC(=O)C3=C(O)c4ccccc4S(=O)(=O)C3)cc2)cc1OC [Example 18, N-[4-[2-(3,4-Dimethoxyphenyl)ethyl]phenyl]-4-hydroxy-2H-1-benzothiopyran-3-carboxamide, 1,1-dioxide] |
| 0.000106 M and 0.00012 M | COc1ccc(CCc2ccc(NC(=O)C3CS(=O)(=O)c4ccccc4C3=O)cc2)cc1O (centres unmarked) [Example 27, 3,4-Dihydro-N-[4-[2-(3-hydroxy-4-methoxyphenyl)ethyl]phenyl]-4-oxo-2H-1-benzothiopyran-3-carboxamide, 1,1-dioxide] |
| 3.84e-06 M | O=C(Nc1ccc(CCc2ccc3ccccc3c2)cc1)C1=C(O)c2ccccc2S(=O)(=O)C1 [Example 51, 4-Hydroxy-N-[4-[2-(2-naphthalenyl)ethyl]phenyl]-2H-1-benzothiopyran-3-carboxamide, 1,1-dioxide] |
| 3.54e-06 M | Cc1ccc(CCc2ccc(NC(=O)C3CS(=O)(=O)c4ccccc4C3=O)cc2)cc1C (centres unmarked) [Example 53, N-[4-[2-(3,4-Dimethylphenyl)ethyl]phenyl]-3,4-dihydro-4-oxo-2H-1-benzothiopyran-3-carboxamide, 1,1-dioxide] |
| 4.13e-07 M and 5.3e-07 M | O=C(Nc1ccc(CCCc2ccc(Cl)c(Cl)c2)cc1)C1=C(O)c2ccccc2S(=O)(=O)C1 [Example 79, 2H-1-Benzothiopyran-3-carboxamide, N-[4-[3-(3,4-dichlorphenyl)propyl]phenyl]-4-hydroxy-, 1,1-dioxide] |
| 6.1e-05 M | COc1cc(CCc2ccc(NC(=O)C(=O)c3sc4ccccc4c3O)cc2)ccc1O [Example 142, Benzo[b]thiophene-2-acetamide, 3-hydroxy-N-[4-[2-(4-hydroxy-3-methoxyphenyl)ethyl]phenyl]-α-oxo-] |
| 1.21e-05 M | COc1ccc(CCc2ccc(NC(=O)c3sc4ccccc4c3O)cc2)cc1OC [Example 143, Benzo[b]thiophene-2-carboxamide, N-[4-[2-(3,4-dimethoxphenyl)ethyl]phenyl]-3-hydroxy] |
| 1.02e-06 M | O=C(Nc1cccc(CCc2ccc(Cl)c(Cl)c2)c1)c1sc2ccccc2c1O [Example 146, Benzo[b]thiophene-2-carboxamide, N-[3-[2-(3,4-dichlorophenyl)ethyl]phenyl]-3-hydroxy] |
